21 compounds from patent US10576062B2, “Carbamoyloxymethyl triazole cyclohexyl acids as LPA antagonists” (Bristol-Myers Squibb Company, priority 2016, dated 2020) can be followed below.

Structures are written as SMILES. pIC50: −log10 of the molar value.

The first assay deals with T1, human LPA1 (Homo sapiens, UniProt Q92633).
T1 construct: expressed in transfected cells; host or cells: Chinese hamster ovary (CHO) cells
T1 sequence (Q92633 whole entry): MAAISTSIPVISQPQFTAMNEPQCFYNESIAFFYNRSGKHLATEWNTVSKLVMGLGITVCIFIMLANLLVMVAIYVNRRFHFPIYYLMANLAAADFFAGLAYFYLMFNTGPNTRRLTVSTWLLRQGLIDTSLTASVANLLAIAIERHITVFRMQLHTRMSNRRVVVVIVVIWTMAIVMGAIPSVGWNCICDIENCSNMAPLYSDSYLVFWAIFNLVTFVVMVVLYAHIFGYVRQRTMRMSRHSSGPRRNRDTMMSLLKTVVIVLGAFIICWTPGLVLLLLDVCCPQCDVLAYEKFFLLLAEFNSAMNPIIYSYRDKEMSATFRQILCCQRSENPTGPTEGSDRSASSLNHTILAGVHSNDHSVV
Nature of the assay: LPA1 functional antagonist assay (LPA-induced calcium flux). The format is cell-based. The conditions noted are these: CHO cells overexpressing human LPA1; inhibition of calcium flux induced by 10 nM LPA; read-out: hLPA1 IC50. How it is done: The effectiveness of compounds of the present invention as LPA1 inhibitors can be determined in an LPA1 functional antagonist assay as follows: Chinese hamster ovary cells overexpressing human LPA1 were plated overnight (15,000 cells/well) in poly-D-lysine coated 384-well microplates (Greiner bio-one, Cat #781946) in DMEM/F12 medium (Gibco, Cat #11039). Following overnight culture, cells were loaded with calcium indicator dye (AAT Bioquest Inc, Cat #34601) for 30 minutes at 37° C. The cells were then equilibrated to room temperature for 30 minutes before the assay. Test compounds solubilized in DMSO were transferred to 384 well non-binding surface plates (Corning, Cat #3575) using the Labcyte Echo acoustic dispense and diluted with assay buffer [1×HBSS with calcium/magnesium (Gibco Cat #14025-092), 20 mM HEPES (Gibco Cat #15630-080) and 0.1% fatty acid free BSA (Sigma Cat #A9205)] to a final concentration of 0.5% DMSO. Diluted compounds were added to the cells by FDSS6000 (Hamamatsu) at final concentrations ranging from 0.08 nM to 5 μM. and were then incubated for 20 min at room temperature at which time LPA (Avanti Polar Lipids Cat #857130C) was added at final concentrations of 10 nM to stimulate the cells. […] IC50 values were determined by fitting data to a 4-parameter logistic equation (GraphPad Prism, San Diego Calif.).
Consider `Cc1nc(-c2nnn(C)c2COC(=O)N(C)CC2CCC2)ccc1O[C@H]1CCC[C@](F)(C(=O)O)C1` (single isomer, unassigned) [Example 13, 3-((6-(5-((((cyclobutylmethyl)(methyl)carbamoyl)oxy)methyl)-1-methyl-1H-1,2,3-triazol-4-yl)-2-methylpyridin-3-yl)oxy)-1-fluorocyclohexane-1-carboxylic Acid], for which the pIC50 (as a rule, −log10 of the IC50, conventionally taken in molar units) is 7.02.

For the compound `Cc1nc(-c2nnn(C)c2COC(=O)N(C)C[C@H]2C[C@@H]2C)ccc1O[C@H]1CCCC(C(=O)O)C1` (stereo in doubt) [Example 258, (1R,3 S)-3-((2-methyl-6-(1-methyl-5-(((methyl(((1S,2S)-2-methylcyclopropyl)methyl)carbamoyl)oxy)methyl)-1H-1,2,3-triazol-4-yl)pyridin-3-yl)oxy)cyclohexane-1-carboxylic Acid], the pIC50 was 7.72.

As to `CN(C(=O)OCc1c(-c2ccc(O[C@H]3CCC[C@H](C(=O)O)C3)cn2)nnn1C)C1CCCC1` [Example 2, (1S,3S)-3-((6-(5-(((cyclopentyl(methyl)carbamoyl)oxy)methyl)-1-methyl-1H-1,2,3-triazol-4-yl)pyridin-3-yl)oxy)cyclohexane-1-carboxylic Acid], the pIC50 was 7.72.

Turning to `CN(CCC1CC1)C(=O)OCc1c(-c2ccc(O[C@H]3CCC[C@H](C(=O)O)C3)cn2)nnn1C` [Example 3, (1S,3S)-3-((6-(5-((((2-cyclopropylethyl)(methyl)carbamoyl)oxy)methyl)-1-methyl-1H-1,2,3-triazol-4-yl)pyridin-3-yl)oxy)cyclohexane-1-carboxylic Acid], the negative logarithm of the IC50 (pIC50) was 7.72.

On to `CN(C(=O)OCc1c(-c2ccc(O[C@H]3CCC[C@H](C(=O)NS(C)(=O)=O)C3)cc2)nnn1C)C1CCCC1` [Example 7, (1-Methyl-4-(4-(((1S,3S)-3-((methylsulfonyl)carbamoyl)cyclohexyl)oxy)phenyl)-1H-1,2,3-triazol-5-yl)methyl cyclopentyl(methyl)carbamate], for which the pIC50 was 5.43.

For `CCCC(C)(C)N(C)C(=O)OCc1c(-c2ccc(O[C@H]3CCC[C@H](C(=O)O)C3)cc2)nnn1C` [Example 10, (1S,3S)-3-(4-(1-Methyl-5-(((methyl(2-methylpentan-2-yl)carbamoyl)oxy)methyl)-1H-1,2,3-triazol-4-yl)phenoxy)cyclohexanecarboxylic Acid], the pIC50 was 7.64.

For `Cc1nc(-c2nnn(C)c2COC(=O)N(C)CC2CCC2)ccc1O[C@H]1CCC[C@H](C(N)=O)C1` [Example 14, (4-(5-(((1S,3S)-3-carbamoylcyclohexyl)oxy)-6-methylpyridin-2-yl)-1-methyl-1H-1,2,3-triazol-5-yl)methyl (cyclobutylmethyl)(methyl)carbamate], the pIC50 was 6.08.

With `Cc1nc(-c2nnn(C)c2COC(=O)N(C)CC2CCC2)ccc1O[C@H]1CCC[C@H](C#N)C1` [Example 15, (4-(5-(((1S,3S)-3-cyanocyclohexyl)oxy)-6-methylpyridin-2-yl)-1-methyl-1H-1,2,3-triazol-5-yl)methyl (cyclobutylmethyl)(methyl)carbamate], the pIC50 is 5.43.

With `Cc1nc(-c2nnn(C)c2COC(=O)N(C)CC2CCC2)ccc1O[C@H]1CCC[C@H](c2nnn[nH]2)C1` [Example 16, (4-(5-(((1S,3 S)-3-(1H-tetrazol-5-yl)cyclohexyl)oxy)-6-methylpyridin-2-yl)-1-methyl-1H-1,2,3-triazol-5-yl)methyl (cyclobutylmethyl)(methyl)carbamate], the pIC50 is 7.66.

As for `Cc1nc(-c2nnn(C)c2COC(=O)N(C)CC2CCC2)ccc1O[C@H]1CCC[C@H](C(=O)NS(C)(=O)=O)C1` [Example 17, (1-methyl-4-(6-methyl-5-(((1S,3S)-3-((methylsulfonyl)carbamoyl)cyclohexyl)oxy)pyridin-2-yl)-1H-1,2,3-triazol-5-yl)methyl (cyclobutylmethyl)(methyl)carbamate], the pIC50 is 6.45.

Still in this assay, the particulars now being: human LPA1; read-out: hLPA1 IC50.
For `Cc1nc(-c2nnn(C)c2COC(=O)N(C)C2CC3(CCC3)C2)ccc1O[C@H]1CCCC(C(=O)O)C1` (stereo in doubt) [Example 158, (1R,3S)-3-((2-methyl-6-(1-methyl-5-(((methyl(spiro[3.3]heptan-2-yl)carbamoyl)oxy)methyl)-1H-1,2,3-triazol-4-yl)pyridin-3-yl)oxy)cyclohexane-1-carboxylic acid], the pIC50 was 7.49.

Still in this assay, the particulars now being: read-out: hLPA1 IC50.
Take `CC(C1CCC1)N(C)C(=O)OCc1c(-c2ccc(O[C@H]3CCC[C@H](C(=O)O)C3)cc2)nnn1C` (single isomer, unassigned) [Example 48]: the pIC50 was 8.10.

`CC(C1CCC1)N(C)C(=O)OCc1c(-c2ccc(O[C@H]3CCC[C@H](C(=O)O)C3)cc2)nnn1C` (single isomer, unassigned) [Example 49]: the pIC50 was 7.85.

As for `CC(C1CCC1)N(C)C(=O)OCc1c(-c2ccc(O[C@H]3CCC[C@H](C(=O)O)C3)cc2)nnn1C` (single isomer, unassigned) [Example 67, trans-3-(4-(5-((((1-cyclobutylethyl)(methyl)carbamoyl)oxy)methyl)-1-methyl-1H-1,2,3-triazol-4-yl)phenoxy)cyclohexane-1-carboxylic acid], the pIC50 was 6.96.

Take `Cc1nc(-c2nnn(C)c2COC(=O)N(C)C2(C)CC(C)C2)ccc1O[C@H]1CCC[C@H](C(=O)O)C1` (single isomer, unassigned) [Example 106]: the pIC50 was 7.17.

Consider `Cc1nc(-c2nnn(C)c2COC(=O)N(C)C2(C)CC(C)C2)ccc1O[C@H]1CCC[C@H](C(=O)O)C1` (single isomer, unassigned) [Example 107], for which the pIC50 was 7.15.

As for `Cc1nc(-c2nnn(C)c2COC(=O)N(C)[C@H](C)c2ccccc2)ccc1O[C@H]1CCC[C@H](C(=O)O)C1` [Example 19, (1S,3S)-3-((2-methyl-6-(1-methyl-5-(((methyl((R)-1-phenylethyl)carbamoyl)oxy)methyl)-1H-1,2,3-triazol-4-yl)pyridin-3-yl)oxy)cyclohexane-1-carboxylic acid], the negative-log IC50 (pIC50) was 7.77.

Regarding `C[C@H](c1ccccc1)N(C)C(=O)OCc1c(-c2ccc(O[C@H]3CCC[C@H](C(=O)O)C3)cn2)nnn1C` [Example 21, (1S,3S)-3-((6-(1-methyl-5-(((methyl((R)-1-phenylethyl)carbamoyl)oxy)methyl)-1H-1,2,3-triazol-4-yl)pyridin-3-yl)oxy)cyclohexane-1-carboxylic acid], the pIC50 was 7.68.

For `CN(Cc1ccccc1)C(=O)OCc1c(-c2ccc(O[C@H]3CCC[C@H](C(=O)O)C3)cn2)nnn1C` [Example 22, (1S,3S)-3-((6-(5-(((benzyl(methyl)carbamoyl)oxy)methyl)-1-methyl-1H-1,2,3-triazol-4-yl)pyridin-3-yl)oxy)cyclohexane-1-carboxylic acid], the pIC50 is 7.74.

On to `CN(CC1CCC1)C(=O)OCc1c(-c2ccc(O[C@H]3CCC[C@H](C(=O)O)C3)cn2)nnn1C` [Example 23, (1S,3S)-3-((6-(5-((((cyclobutylmethyl)(methyl)carbamoyl)oxy)methyl)-1-methyl-1H-1,2,3-triazol-4-yl)pyridin-3-yl)oxy)cyclohexane-1-carboxylic acid], for which the negative-log IC50 (pIC50) is 7.92.

In the case of `C[C@H](C1CC1)N(C)C(=O)OCc1c(-c2ccc(O[C@H]3CCC[C@H](C(=O)O)C3)cn2)nnn1C` [Example 25, (1S,3S)-3-((6-(5-(((((R)-1-cyclopropylethyl)(methyl)carbamoyl)oxy)methyl)-1-methyl-1H-1,2,3-triazol-4-yl)pyridin-3-yl)oxy)cyclohexane-1-carboxylic acid], the pIC50 was 7.70.
